The supplement of paper PMC10307832

Experiments:
Assay in all cases: relative viability (nuclei count vs DMSO), 5 days (fraction); higher = more cells survive
BX 795 + Navitoclax = compound: O=C(NCCCNc1nc(Nc2cccc(NC(=O)N3CCCC3)c2)ncc1I)c1cccs1 [BX 795] + CC1(C)CCC(c2ccc(Cl)cc2)=C(CN2CCN(c3ccc(C(=O)NS(=O)(=O)c4ccc(N[C@H](CCN5CCOCC5)CSc5ccccc5)c(S(=O)(=O)C(F)(F)F)c4)cc3)CC2)C1 [Navitoclax] (partner 0.5 µM)
Method in brief: (§1)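 Lung cancer cell lines were seeded in 1536-well plates and dosed by pin tool the next day, with either a single drug or a fixed anchor-drug dose combined with five library-drug doses (not always all listed) spaced in √10 steps. Five days later, one step fixed the cells and stained their nuclei (final 0.05% Triton X-100, 1% formaldehyde, 1 ug/ml Hoechst), and nuclei were counted on 4× images. Relative viability is the nuclei count in treated wells divided by the count in vehicle wells, and each value is the median of duplicate plates.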

BX 795 + Decitabine = compound: O=C(NCCCNc1nc(Nc2cccc(NC(=O)N3CCCC3)c2)ncc1I)c1cccs1 [BX 795] + Nc1ncn([C@H]2C[C@H](O)[C@@H](CO)O2)c(=O)n1 [Decitabine] (partner 2 µM)
Method in brief: as §1

BX 795 + Vorinostat = compound: O=C(NCCCNc1nc(Nc2cccc(NC(=O)N3CCCC3)c2)ncc1I)c1cccs1 [BX 795] + O=C(CCCCCCC(=O)Nc1ccccc1)NO [Vorinostat] (partner 1 µM)
Method in brief: as §1

BX 795 + Tozasertib = compound: O=C(NCCCNc1nc(Nc2cccc(NC(=O)N3CCCC3)c2)ncc1I)c1cccs1 [BX 795] + Cc1cc(Nc2cc(N3CCN(C)CC3)nc(Sc3ccc(NC(=O)C4CC4)cc3)n2)n[nH]1 [Tozasertib] (partner 0.1 µM)
Method in brief: as §1

BX 795 + Pemetrexed = compound: O=C(NCCCNc1nc(Nc2cccc(NC(=O)N3CCCC3)c2)ncc1I)c1cccs1 [BX 795] + Nc1nc2[nH]cc(CCc3ccc(C(=O)N[C@@H](CCC(=O)O)C(=O)O)cc3)c2c(=O)[nH]1 [Pemetrexed] (partner 0.2 µM)
Method in brief: as §1

| Cell Line | relative viability (BX 795 + Navitoclax; first compound 0.04 µM) | relative viability (BX 795 + Navitoclax; first compound 0.1265 µM) | relative viability (BX 795 + Navitoclax; first compound 0.4 µM) | relative viability (BX 795 + Navitoclax; first compound 1.265 µM) | relative viability (BX 795 + Decitabine; first compound 0.04 µM) | relative viability (BX 795 + Decitabine; first compound 0.1265 µM) | relative viability (BX 795 + Decitabine; first compound 0.4 µM) | relative viability (BX 795 + Decitabine; first compound 1.265 µM) | relative viability (BX 795 + Vorinostat; first compound 0.04 µM) | relative viability (BX 795 + Vorinostat; first compound 0.1265 µM) | relative viability (BX 795 + Vorinostat; first compound 0.4 µM) | relative viability (BX 795 + Vorinostat; first compound 1.265 µM) | relative viability (BX 795 + Tozasertib; first compound 0.04 µM) | relative viability (BX 795 + Tozasertib; first compound 0.1265 µM) | relative viability (BX 795 + Tozasertib; first compound 0.4 µM) | relative viability (BX 795 + Tozasertib; first compound 1.265 µM) | relative viability (BX 795 + Pemetrexed; first compound 0.04 µM) | relative viability (BX 795 + Pemetrexed; first compound 0.1265 µM) | relative viability (BX 795 + Pemetrexed; first compound 0.4 µM) | relative viability (BX 795 + Pemetrexed; first compound 1.265 µM) |
| --- | --- | --- | --- | --- | --- | --- | --- | --- | --- | --- | --- | --- | --- | --- | --- | --- | --- | --- | --- | --- |
| EMC-BAC-2 | 1.18 | 1.24 | 1.24 | 0.906 | 1.02 | 1.03 | 0.962 | 0.736 | 0.393 | 0.261 | 0.411 | 0.198 | 0.277 | 0.362 | 0.258 | 0.175 | 0.383 | 0.446 | 0.428 | 0.454 |
| NCI-H520 | 0.736 | 1.12 | 0.95 | 0.535 | 0.55 | 0.545 | 0.622 | 0.425 | 0.69 | 0.721 | 0.768 | 0.381 | 0.44 | 0.447 | 0.421 | 0.401 | 0.393 | 0.7 | 0.341 | 0.335 |
| NCI-H1395 | 1.23 | 1.06 | 0.531 | 0.837 | 0.693 | 0.774 | 0.48 | 0.597 | 0.574 | 0.624 | 0.404 | 0.516 | 0.698 | 0.721 | 0.601 | 0.72 | 0.675 | 0.872 | 0.407 | 0.626 |
| HCC-366 | 0.865 | 0.977 | 0.74 | 0.823 | 0.332 | 0.371 | 0.31 | 0.255 | 0.311 | 0.295 | 0.224 | 0.0717 | 0.228 | 0.0924 | 0.0936 | 0.0708 | 0.104 | 0.168 | 0.0915 | 0.149 |
| NCI-H1755 | 1.07 | 0.978 | 1.04 | 0.671 | 0.796 | 0.645 | 0.885 | 0.704 | 0.738 | 0.735 | 0.739 | 0.761 | 0.681 | 0.481 | 0.553 | 0.508 | 0.42 | 0.44 | 0.381 | 0.447 |
| NCI-H838 | 1.05 | 1.1 | 1.02 | 0.519 | 0.568 | 0.487 | 0.512 | 0.322 | 0.737 | 0.69 | 0.642 | 0.201 | 0.236 | 0.303 | 0.272 | 0.22 | 0.254 | 0.249 | 0.189 | 0.184 |
| NCI-H1355 | 0.974 | 0.937 | 1.09 | 0.626 | 0.355 | 0.278 | 0.449 | 0.337 | 0.649 | 0.63 | 0.696 | 0.487 | 0.589 | 0.442 | 0.486 | 0.385 | 0.798 | 0.977 | 1.09 | 1.01 |
| HCC-78 | 0.857 | 0.926 | 0.792 | 0.718 | 0.913 | 0.664 | 0.825 | 0.653 | 0.474 | 0.419 | 0.399 | 0.352 | 0.472 | 0.317 | 0.345 | 0.386 | 0.913 | 0.888 | 0.873 | 0.883 |
| NCI-H1650 | 1.17 | 1.12 | 1.41 | 0.649 | 0.571 | 0.471 | 0.548 | 0.644 | 0.593 | 0.486 | 0.528 | 0.369 | 0.548 | 0.425 | 0.377 | 0.25 | 0.392 | 0.431 | 0.243 | 0.416 |
| NCI-H1944 | 1.14 | 1.11 | 1.07 | 0.953 | 0.471 | 0.497 | 0.534 | 0.408 | 0.674 | 0.637 | 0.575 | 0.475 | 0.286 | 0.236 | 0.302 | 0.243 | 0.616 | 0.577 | 0.41 | 0.606 |
| BEN | 0.0771 | 0.0586 | 0.0606 | 0.0858 | 0.886 | 0.709 | 0.673 | 0.672 | 0.591 | 0.559 | 0.582 | 0.526 | 0.606 | 0.447 | 0.523 | 0.44 | 0.803 | 0.766 | 0.771 | 0.771 |
| A-427 | 0.97 | 1.02 | 1.01 | 0.788 | 0.588 | 0.588 | 0.545 | 0.516 | 0.915 | 0.812 | 0.872 | 0.754 | 0.227 | 0.148 | 0.179 | 0.136 | 1.02 | 0.925 | 1.08 | 0.849 |
| LXF-289 | 0.971 | 0.926 | 0.975 | 0.628 | 0.448 | 0.347 | 0.582 | 0.373 | 0.838 | 0.719 | 0.811 | 0.674 | 0.209 | 0.155 | 0.154 | 0.142 | 0.898 | 0.832 | 0.894 | 0.831 |
| COR-L23 | 1.15 | 1.02 | 1.02 | 0.524 | 0.53 | 0.42 | 0.516 | 0.319 | 0.379 | 0.458 | 0.205 | 0.106 | 0.201 | 0.186 | 0.168 | 0.111 | 0.204 | 0.188 | 0.176 | 0.171 |
| NCI-H647 |  | 1.08 | 1.07 | 1.01 | 0.383 | 0.447 | 0.513 | 0.37 | 0.553 | 0.658 | 0.571 | 0.189 | 0.256 | 0.352 | 0.218 | 0.233 | 0.163 | 0.186 | 0.106 | 0.106 |
